Measured values: US20250161308A1, “Methods of Treating Covid-Related Disorders” (priority 2022, published 2025)
Read-outs that look alike come from different tables or passages of the source.

Assays:
Rat hippocampal neurons [1] = test: Neurite outgrowth assay; assay type: cell-based; details: for Significant increase in: Neurite length: Table 4 study
[2] = system: bleomycin-induced pulmonary fibrosis in C57BL/6 mice; test: Bleomycin-induced pulmonary fibrosis; assay type: in vivo, mouse; details: for TGF-Beta, improvement versus disease control / Collagen, improvement versus disease control / Hydroxyproline, improvement versus disease control: right lung homogenate
[3] = system: patient in need of treatment for long COVID; test: Treating long COVID (Example 1), clinical screening assessments; assay type: in vivo, human; details: patients with long COVID
Method: A Compound of Formula (I), such as Compound 2a or Compound 1a, or a pharmaceutically acceptable salt thereof, is administered orally to a patient in need of treatment for long COVID.
In some embodiments, a patient in need of treatment for long COVID is assessed with ADCS-ADL23. The ADCS-ADL23 (Galasko, 1997) is a 23-item assessment of functional impairment in terms of activities of daily living administered to the support person/caregiver. It comprises 23 questions about the subject's involvement and level of performance across items representing daily living. The questions range from basic to instrumental activities of daily living. Each item is rated from the highest level of independent performance to complete loss. The total score range is from 0 to 78, with lower scores indicating greater functional impairment.
A patient in need of treatment for long COVID is assessed with ERP P300. ERP P300 is a quantitative, unbiased, non-invasive method of recording task-related brain processing speed, elicited by external stimuli, e.g., an oddball auditory stimulus, and is a well-established functional biomarker, particularly of working memory access (Ally, 2006). ERP P300 is characterized by a stereotyped series of voltage deflections occurring after the respective odd tone to be counted, with early features (<100 msec) corresponding to unconscious sensory transmission (auditory cortex, N100), and later features produced by cognitive processing in the ventral attentional network, i.e., P300, referring to the large positive deflection at roughly 300 msec in healthy adults (young or elderly). The P300 latency is sensitive to detecting reduced synaptic transmission related to cognitive decline in AD patients and other dementias (Olichney, 2011).

[4] = system: Rat primary cortical neuron cultures; assay type: cell-based; details: for Significance of neuroprotection vs 1 uM LPS: 24 h LPS
[5] = system: THP1-differentiated macrophages; assay type: cell-based, human; set-up: key to Significant reduction in IL-6 / Significant reduction in TNF-α / Significant reduction in IL-1β: NS: indicates a non-significant reduction in the indicated cytokine; +: indicates a p value<0.05 in Tukey post test; ++: indicates a p value<0.01 in Tukey post test; details: for Significant reduction in IL-1β / Significant reduction in IL-6 / Significant reduction in TNF-α: 24 hrs LPS
[6] = system: pulmonary LPS-stimulated rats; test: Cytokine expression in BALF supernatant (multiplex immunoassay), LPS acute pulmonary inflammation; assay type: in vivo, rat; details: any dose, p<0.05 vs LPS-only animals
Rat hippocampal neurons [7] = test: Synaptogenesis assay; assay type: cell-based; details: for Significant increase in: Synapses: Table 4 study
[8] = system: pulmonary LPS-stimulated rats; test: Immune cell infiltration in BALF, LPS acute pulmonary inflammation; assay type: in vivo, rat
[9] = system: LPS-induced cognitive deficit in CD-1 mice; test: Rodent LPS model of brain inflammation, T-maze spontaneous alternation; assay type: in vivo, mouse; details: for Recovery (%) / Spontaneous alternation (%) Mean: LPS 250 μg/kg
[10] = system: chemically-induced spatial memory deficits in rats; test: Scopolamine-induced spatial memory deficit, Morris water maze (2 mg/kg scopolamine, 5 days); assay type: in vivo, rat
Method: Exemplary compound 1a was evaluated for its ability to reverse chemically-induced spatial memory deficits in rats in the Morris water maze. The water maze consists of a large round tank (diameter 1.5 m) filled with 23-26° C. water to a depth of ˜30 cm and the water was clouded with white paint. A round platform was fixed such that it rested 2-3 cm below the surface of the water. High-contrast visual cues were placed around the tank to aid spatial orientation of test animals. Testing consisted of placing an animal into the water facing the tank wall at one of three randomly assigned starting locations and allowing the animal to swim and search for the hidden platform for up to 90 seconds. The time taken for the animal to locate the platform was recorded as the escape latency. Animals were tested 5 times per day with a 30 second rest period between trials. Testing was completed for a total of 5 consecutive days.
Animals were divided into groups (N=12 per group) depending on treatment. Control animals received only empty vehicle. Scopolamine groups received 2 mg/kg scopolamine dissolved in sterile saline by intraperitoneal (IP) injection 30 minutes prior to testing. Test compound groups received test compound at various concentrations by oral gavage (PO) dissolved in 78% sterile saline, 20% polyethylene glycol (PEG-400), and 2% DMSO 40 minutes prior to testing. Escape latencies were recorded for each animal for 5 trials each day for 5 consecutive days. Changes in escape latency curves were statistically analyzed by 2-way ANOVA with Bonferoni post-test.

CCC(C)CN1CC2N(C(=O)c3ccc(C(F)(F)F)cc3)CCC(=O)N2[C@@H](C)C1=O (stereo partly drawn) [Compound 1a]
neurite length / extension of neurites (in words) (Rat hippocampal neurons [1]): increase both measures at all doses tested
Significant increase in: Neurite length (Rat hippocampal neurons [1]; 1 nM): ++++ (++++ = p < 0.0001)
Significant increase in: Neurite length (Rat hippocampal neurons [1]; 10 nM): ++++ (++++ = p < 0.0001)
Significant increase in: Neurite length (Rat hippocampal neurons [1]; 100 nM): + (+ = p < 0.05)
TGF-Beta, improvement versus disease control ([2]; 0.2 mg/kg po QD): +++ (+++ => 51-100% improvement v disease control)
weight loss compared to the other treatment groups ([2]; 0.8 mg/kg): slightly greater weight loss
Right Lung Weight, improvement versus disease control ([2]; 0.8 mg/kg po QD, day 21): + (+ => 5-25% improvement v disease control)
Collagen, improvement versus disease control ([2]; 0.8 mg/kg po QD): + (+ => 5-25% improvement v disease control)
TGF-Beta, improvement versus disease control ([2]; 0.8 mg/kg po QD): +++ (+++ => 51-100% improvement v disease control)
collagen in right lung homogenate versus pirfenidone (in words) ([2]; 2 mg/kg): about the same levels of collagen
Right Lung Weight, improvement versus disease control ([2]; 2 mg/kg po QD, day 21): + (+ => 5-25% improvement v disease control)
Collagen, improvement versus disease control ([2]; 2 mg/kg po QD): ++ (++ => 26-50% improvement v disease control)
Hydroxyproline, improvement versus disease control ([2]; 2 mg/kg po QD): ++ (++ => 26-50% improvement v disease control)
TGF-Beta, improvement versus disease control ([2]; 2 mg/kg po QD): +++ (+++ => 51-100% improvement v disease control)
collagen concentration in right lung homogenates (in words) ([2]; 8 mg/kg): reduced compared to the pirfenidone positive control
hydroxyproline concentration in right lung homogenates (in words) ([2]; 8 mg/kg and 2 mg/kg): lower concentrations of hydroxyproline
Right Lung Weight, improvement versus disease control ([2]; 8 mg/kg po QD, day 21): ++ (++ => 26-50% improvement v disease control)
Hydroxyproline, improvement versus disease control ([2]; 8 mg/kg po QD): + (+ => 5-25% improvement v disease control)
TGF-Beta, improvement versus disease control ([2]; 8 mg/kg po QD): + (+ => 5-25% improvement v disease control)
protection against bleomycin-induced increases in TGF-β (in words) ([2]; all doses, day 21): significantly protected against bleomycin-induced increases in TGF-β
protection against body weight loss (in words) ([2]; all treatment groups): did not protect against body weight loss
activity in treating pulmonary fibrosis in the model ([2]; mouse, in vivo): active in treating pulmonary fibrosis
patient outcome as measured by one or more of the screening assessments [3]: reduces the rate of decline, stabilizes, or improves patient outcome
safety and tolerability [3]: acceptable safety and tolerability
Significance of neuroprotection vs 1 uM LPS ([4]; 0.1 nM): +++ (+++ indicates p<0.001)
Significance of neuroprotection vs 1 uM LPS ([4]; 1 nM): +++ (+++ indicates p<0.001)
Significance of neuroprotection vs 1 uM LPS ([4]; 10 nM): +++ (+++ indicates p<0.001)
Significance of neuroprotection vs 1 uM LPS ([4]; 100 nM): +++ (+++ indicates p<0.001)
Significance of neuroprotection vs 1 uM LPS ([4]; 1 μM): +++ (+++ indicates p<0.001)
protection of primary neurons from LPS-stimulated inflammatory toxicity ([4]; at at least one dose tested): protected primary neurons from LPS-stimulated inflammatory toxicity
Significant reduction in IL-1β ([5]; 0.1 nM): ++ (indicates a p value<0.01 in Tukey post test)
Significant reduction in IL-6 ([5]; 0.1 nM): NS
Significant reduction in TNF-α ([5]; 0.1 nM): ++ (indicates a p value<0.01 in Tukey post test)
Significant reduction in IL-1β ([5]; 10 nM): ++ (indicates a p value<0.01 in Tukey post test)
Significant reduction in IL-6 ([5]; 10 nM): ++ (indicates a p value<0.01 in Tukey post test)
Significant reduction in TNF-α ([5]; 10 nM): ++ (indicates a p value<0.01 in Tukey post test)
Significant reduction in IL-1β ([5]; 1000 nM): ++ (indicates a p value<0.01 in Tukey post test)
Significant reduction in IL-6 ([5]; 1000 nM): + (indicates a p value<0.05 in Tukey post test)
Significant reduction in TNF-α ([5]; 1000 nM): ++ (indicates a p value<0.01 in Tukey post test)
expression of IL-1β (in words) ([5]; at at least one tested dose): significantly reduced the expression of IL-1β and TNF-α
expression of IL-6 (in words) ([5]; at at least one tested dose): significantly reduced the expression of IL-6
expression of TNF-α (in words) ([5]; at at least one tested dose): significantly reduced the expression of IL-1β and TNF-α
cytokines with significant changes in expression in BALF supernatant (list) [6]: G-CSF, CXCL2, CXCL10, IFN-γ, and IL-1β
synapse counts (in words) (Rat hippocampal neurons [7]): increase both measures at all doses tested
Significant increase in: Synapses (Rat hippocampal neurons [7]; 1 nM): ++++ (++++ = p < 0.0001)
Significant increase in: Synapses (Rat hippocampal neurons [7]; 10 nM): ++++ (++++ = p < 0.0001)
Significant increase in: Synapses (Rat hippocampal neurons [7]; 100 nM): ++++ (++++ = p < 0.0001)
Neutrophils in BALF, reduction vs disease control ([8]; 0.0075 mg/kg IV): ++ (++ = >25% reduction in cell count vs disease control)
Total Leukocytes in BALF, reduction vs disease control ([8]; 0.0075 mg/kg IV): ++ (++ = >25% reduction in cell count vs disease control)
Neutrophils in BALF, reduction vs disease control ([8]; 0.075 mg/kg IV): + (+ = >5% reduction in cell count vs disease control)
Total Leukocytes in BALF, reduction vs disease control ([8]; 0.075 mg/kg IV): + (+ = >5% reduction in cell count vs disease control)
neutrophil counts compared to LPS-only controls (in words) ([8]; rat, in vivo): reduced both total leukocyte counts and neutrophil counts
total leukocyte counts compared to LPS-only controls (in words) ([8]; rat, in vivo): reduced both total leukocyte counts and neutrophil counts
Recovery (%) ([9]; 0.5 mg/kg p.o. 14 days): 17%
Spontaneous alternation (%) Mean ([9]; 0.5 mg/kg p.o. 14 days): 49%
Spontaneous alternation (%) Mean ([9]; 0.5 mg/kg p.o. 14 days, listed as Cmpd la): 48.6%
Recovery (%) ([9]; 2 mg/kg p.o. 14 days): 56%
Spontaneous alternation (%) Mean ([9]; 2 mg/kg p.o. 14 days): 59%
Spontaneous alternation (%) Mean ([9]; 2 mg/kg p.o. 14 days, listed as Cmpd la): 58.6%
Recovery (%) ([9]; 8 mg/kg p.o. 14 days): 47%
Spontaneous alternation (%) Mean ([9]; 8 mg/kg p.o. 14 days): 56%
Spontaneous alternation (%) Mean ([9]; 8 mg/kg p.o. 14 days, listed as Cmpd la): 56.4%
Recovery (%) ([9]; 16 mg/kg p.o. 14 days): 28%
Spontaneous alternation (%) Mean ([9]; 16 mg/kg p.o. 14 days): 51%
Spontaneous alternation (%) Mean ([9]; 16 mg/kg p.o. 14 days, listed as Cmpd la): 51.4%
Recovery (%) ([9]; 32 mg/kg p.o. 14 days): 44%
Spontaneous alternation (%) Mean ([9]; 32 mg/kg p.o. 14 days): 56%
Spontaneous alternation (%) Mean ([9]; 32 mg/kg p.o. 14 days, listed as Cmpd la): 55.7%
significance of reversal of LPS-induced cognitive deficit (in words) ([9]; T-maze): significant reversal of LPS-induced cognitive deficits at 2 mg/kg
Cognitive Improvement ([10]; 0.5 mg/kg PO): + (+ indicates post-test p-value between 0.06 and 0.05)
Cognitive Improvement ([10]; 2 mg/kg PO): − (− indicates post-test p-value above 0.06)
Cognitive Improvement ([10]; 8 mg/kg PO): − (− indicates post-test p-value above 0.06)
